Source: article PMC5526870, “Fragment optimization for GPCRs by molecular dynamics free energy calculations: Probing druggable subpockets of the A2A adenosine receptor binding site” (Scientific Reports, 2017)
Values joined by “and” are separate entries in the source; they are usually repeats but may differ in a detail not shown here. Equal values may be shown once. Read-outs that look alike come from different tables or passages of the source.

Legend:
[1] = target: T1, human A2AAR (Homo sapiens, UniProt P29274); details: 95% confidence interval in brackets, cited from earlier work
T1 construct: expressed in transfected cells; host or cells: CHO cells

[2] = target: T1, human A2AAR; assay: Radioligand binding assay at the A2AAR for adenine derivatives 1-23 (displacement of [3H]NECA, CHO cells)
Protocol: (§1) Radioligand binding assays for compounds 25–36 were performed as previously described[61] using membrane preparations from Chinese hamster ovary (CHO) or human embryonic kidney (HEK)293 cells stably expressing the human A1, A2A or A3AR. The following radioligands: antagonist [^3H]DPCPX (0.5 nM); antagonist [^3H]ZM241385 (1.0 nM); and agonist [^125I]AB-MECA (0.2 nM) were used for A1, A2A, and A3ARs, respectively. Binding parameters were calculated using Prism 6 software (GraphPAD, San Diego, CA, USA). IC50 values obtained from competition curves were converted to Ki values using the Cheng-Prusoff equation. Data were expressed as mean ± standard error. The radioligand binding assays for compounds 18, 20, 21, and 23 were performed as previously described. Each Ki value was determined from at least three independent experiments.
Supplementary Table S1. Binding data for compounds 1-23. […]
aKi value from Lambertucci et al.1 bKi value from Volpini et al.2 cDisplacement of specific [3H]NECA binding at human A2AAR expressed in CHO cells measured in this work.
Data is expressed as geometric means with 95% confidence limits (n=3-6). […]

[3] = target: T1, human A2AAR; assay: Functional assay: inhibition of NECA-induced cAMP production (GloSensor) in CHO cells; assay type: cell-based; details: against 1 µM NECA, CHO cells expressing human A2AAR
Protocol: CHO cells, stably transfected with the human A2AAR and transiently with firefly luciferase biosensor, were grown adherently and maintained in Dulbecco’s Modified Eagles Medium with nutrient mixture F12 (DMEM/F12 with phenol red), supplemented with 10% FBS (Fetal Bovine Serum), 100 U/mL penicillin, 100 µg/mL streptomycin, 2.5µg/mL amphotericin, 1 mM Sodium pyruvate, and 0.1 mg/mL Geneticin (G418) at 37 °C, and aerated with 5% CO2: 95% O2. Cells were harvested in CO2 independent media and counted in a Neobauer chamber. The desiderate cell number was incubated in equilibration medium containing a 3% v/v GloSensor cAMP reagent stock solution, 10% FBS and 87% CO2 independent medium. After 2 hours of incubation cells were dispensed in wells of 384 well plate and when a steady-state basal signal was obtained, different concentrations of antagonists were added. After 10 min, 1 µM of 5′-N-ethylcarboxamidoadenosine (NECA), the reference agonist, was injected. Responses were expressed as percentage of the Maximal Relative Luminescence Units (RLU). Inhibition-response curves were fitted by a non-linear regression using a Prism 4.0 program (GraphPad Software, San Diego, CA, USA).

[4] = target: T2, human A1AR (Homo sapiens, UniProt P30542); assay: Radioligand binding assay, antagonist [3H]DPCPX (0.5 nM), membranes of CHO or HEK293 cells; details: for inhibition at 300 µM: read-out: % inhibition at 300 µM A1
T2 construct: expressed in transfected cells; host or cells: CHO or HEK293 cells (membrane preparations)
T2 sequence (P30542 1-326): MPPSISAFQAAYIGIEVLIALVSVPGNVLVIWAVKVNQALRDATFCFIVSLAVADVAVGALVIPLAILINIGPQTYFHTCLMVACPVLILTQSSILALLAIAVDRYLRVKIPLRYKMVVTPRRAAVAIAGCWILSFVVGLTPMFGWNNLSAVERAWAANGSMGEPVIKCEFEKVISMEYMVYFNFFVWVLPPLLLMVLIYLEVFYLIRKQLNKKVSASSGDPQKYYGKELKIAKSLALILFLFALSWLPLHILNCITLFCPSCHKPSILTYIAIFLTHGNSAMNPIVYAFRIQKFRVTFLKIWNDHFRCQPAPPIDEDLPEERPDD
Protocol: Binding parameters were calculated using Prism 6 software (GraphPAD, San Diego, CA, USA). IC50 values obtained from competition curves were converted to Ki values using the Cheng-Prusoff equation. Data were expressed as mean ± standard error. […] Each Ki value was determined from at least three independent experiments.
Supplementary Table S2. […] Radioligand binding
(§2) assays were performed using membranes of mammalian cells overexpressing one AR subtype.

[5] = target: T3, human A3AR (Homo sapiens, UniProt P0DMS8); assay: Radioligand binding assay, agonist [125I]AB-MECA (0.2 nM), membranes of CHO or HEK293 cells; details: for inhibition at 300 µM: read-out: % inhibition at 300 µM A3, 300 µM, mean ± standard error, n=3; for Ki: mean ± standard error, n=3, read-out: Ki A3
T3 construct: expressed in transfected cells; host or cells: CHO or HEK293 cells (membrane preparations)
T3 sequence (P0DMS8 1-318): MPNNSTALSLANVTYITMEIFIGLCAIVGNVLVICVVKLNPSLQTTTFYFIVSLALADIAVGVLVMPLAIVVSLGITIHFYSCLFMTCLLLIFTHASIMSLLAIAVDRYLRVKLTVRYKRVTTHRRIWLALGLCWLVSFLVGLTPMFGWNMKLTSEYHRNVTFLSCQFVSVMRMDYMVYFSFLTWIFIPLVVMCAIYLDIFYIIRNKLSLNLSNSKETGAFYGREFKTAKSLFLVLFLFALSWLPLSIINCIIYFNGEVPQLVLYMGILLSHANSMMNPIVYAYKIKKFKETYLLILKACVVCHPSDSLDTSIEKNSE
Protocol: as §1
(§3) Supplementary Table S2. Experimental data for compounds 25-36. Radioligand binding
as §2
(§4) aData are expressed as mean ± standard error resulting from three independent experiments.

[6] = target: T1, human A2AAR; assay: Radioligand binding assay, antagonist [3H]ZM241385 (1.0 nM), membranes of CHO or HEK293 cells, compounds 25-36; details: for inhibition at 300 µM: read-out: % inhibition at 300 µM A2A (displacement of radioligand binding); for inhibition at 300 µM / Ki: [3H]ZM241385, mean ± standard error, n=3; for Ki: read-out: Ki A2A; for fold increase of affinity compared to compound 32: experimentally determined, A2AAR
Protocol: as §1, §3, §2, §4

[7] = displacement of specific [3H]NECA binding at human A2AAR expressed in CHO cells, measured in this work
[8] = [3H]DPCPX, mean ± standard error, n=3
[9] = [3H]DPCPX, mean ± standard error, n=3, read-out: Ki A1

T1 sequence (P29274 whole entry): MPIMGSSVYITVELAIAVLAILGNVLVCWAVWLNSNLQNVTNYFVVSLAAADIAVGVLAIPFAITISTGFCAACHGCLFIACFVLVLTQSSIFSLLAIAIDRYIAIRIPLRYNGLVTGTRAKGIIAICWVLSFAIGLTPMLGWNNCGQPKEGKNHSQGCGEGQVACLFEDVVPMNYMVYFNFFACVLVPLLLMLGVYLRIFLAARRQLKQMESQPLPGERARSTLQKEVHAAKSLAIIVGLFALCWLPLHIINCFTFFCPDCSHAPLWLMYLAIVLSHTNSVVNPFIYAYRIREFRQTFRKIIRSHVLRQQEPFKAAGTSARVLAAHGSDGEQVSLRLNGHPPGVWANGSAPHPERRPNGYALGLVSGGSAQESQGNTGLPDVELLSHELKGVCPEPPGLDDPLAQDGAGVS

Cn1cnc2ncnc(N)c21 [Compound 1]
Ki ([1]; ref Lambertucci et al. [22]): > 100 µM

Cn1c(Br)nc2c(N)ncnc21 [Compound 3]
experimental improvement in binding free energy, compound 3 versus compound 2 ([2]; C8-bromine addition): 2.4 kcal/mol | fold increase in affinity compared to compound 2 ([2]; C8-bromine versus unsubstituted compound 2): 58 fold | experimental improvement of binding affinity, compound 3 versus compound 4 ([2]; addition of N9-methyl group): 2.0 kcal/mol

CCn1c(Br)nc2c(N)ncnc21 [Compound 5]
inhibition of A2AAR mediated cAMP production [3]: close to completely inhibit the agonist effect of 1 µM NECA | Ki ([1]; ref Lambertucci et al. [22]): 0.052 µM

Nc1ncnc2c1nc(Br)n2CCO [Compound 6]
Ki ([1]; ref Lambertucci et al. [22]): 0.62 µM

CCCn1c(Br)nc2c(N)ncnc21 [Compound 7]
Ki ([1]; ref Lambertucci et al. [22]): 0.3 µM

CC(C)Cn1c(Br)nc2c(N)ncnc21 [Compound 8]
Ki ([1]; ref Lambertucci et al. [22]): 6 µM

CCn1cnc2c(N)ncnc21 [Compound 9]
Ki ([1]; ref Lambertucci et al. [22]): 2.2 µM

Nc1ncnc2c1ncn2CCO [Compound 10]
Ki ([1]; ref Lambertucci et al. [22]): 11 µM

CC(C)Cn1cnc2c(N)ncnc21 [Compound 11]
Ki ([1]; ref Lambertucci et al. [22]): > 100 µM

Nc1ncnc2c1ncn2CCCO [Compound 12]
Ki ([1]; ref Lambertucci et al. [22]): 3.9 µM

CCCn1cnc2c(N)ncnc21 [Compound 13]
Ki ([1]; ref Lambertucci et al. [22]): 9.6 µM

Nc1ncnc2c1nc(Br)n2C1CCCC1 [Compound 14]
Ki ([1]; ref Lambertucci et al. [22]): 1.9 µM

Nc1ncnc2c1ncn2C1CCCC1 [Compound 15]
Ki ([1]; ref Lambertucci et al. [22]): 1.8 µM

C=CCCn1cnc2c(N)ncnc21 [Compound 17]
Ki ([1]; ref Lambertucci et al. [22]): 8.5 µM

CCn1c(C)nc2c(N)ncnc21 [Compound 18]
fold increase of binding affinity compared to compound 9 ([2]; C8-methyl substituent): 10 fold | Ki [2, 7]: 0.218 ± 0.061 µM

CCn1c(O)nc2c(N)ncnc21 [Compound 20]
Ki [2, 7]: 1.14 ± 0.29 µM

CCOc1nc2c(N)ncnc2n1CC [Compound 22]
inhibition of A2AAR mediated cAMP production [3]: close to completely inhibit the agonist effect of 1 µM NECA | Ki ([1]; ref Volpini et al. [23]): 0.046 µM

CCn1c(OC(C)C)nc2c(N)ncnc21 [Compound 23]
Ki ([2]; compound retested in a radioligand binding assay at the A2AAR, this work): 0.095 µM | fold loss of binding affinity relative to compound 21 ([2]; from published affinity of 23): > 1000 fold | inhibition of A2AAR mediated cAMP production [3]: close to completely inhibit the agonist effect of 1 µM NECA | Ki ([1]; ref Volpini et al. [23]): > 100 µM

Nc1ncnc2ncnn12 [Compound 25, [1,2,4]triazolo[1,5-a][1,3,5]triazin-7-amine]
inhibition at 300 µM [4, 8]: 27 ± 4% | inhibition at 300 µM [5]: 39 ± 2% | inhibition at 300 µM [6]: 34%

Cc1nc2ncnc(N)n2n1 [Compound 26]
inhibition at 300 µM [4, 8]: 44 ± 4% | inhibition at 300 µM [5]: 50 ± 4% | Ki [6]: 78.5 µM

CSc1nc2ncnc(N)n2n1 [Compound 27]
Ki [4]: 97.3 ± 3.5 µM | Ki [5]: 119 ± 42 µM | Ki [6]: 20 µM

Nc1cccn2ncnc12 [Compound 28, [1,2,4]triazolo[1,5-a]pyridin-8-amine]
inhibition at 300 µM [4, 8]: 22 ± 6% | Ki [5]: 153 ± 31 µM | inhibition at 300 µM [6]: 17%

Cc1nc2c(N)cccn2n1 [Compound 29]
inhibition at 300 µM [4, 8]: 38 ± 6% | inhibition at 300 µM [5]: 44 ± 4% | inhibition at 300 µM [6]: 31%

CCc1nc2c(N)cccn2n1 [Compound 30]
Ki [4]: 97.2 ± 22.5 µM | Ki [5]: 110 ± 17 µM | inhibition at 300 µM [6]: 49%

CC(C)c1nc2c(N)cccn2n1 [Compound 31]
Ki [4]: 50.1 ± 22.6 µM | Ki [5]: 102 ± 32 µM | Ki [6]: 223 µM

CC(=O)Nc1nc2ccccc2s1 [Compound 32, N-(benzo[d]thiazol-2-yl)acetamide]
Ki [4, 9]: 11.2 ± 2.4 µM | Ki [5]: 0.81 ± 0.17 µM | Ki [6]: 79.1 µM and 79 µM

CC(=O)Nc1nc2c(C)cccc2s1 [Compound 33]
Ki [4, 9]: 17 ± 1.2 µM | Ki [5]: 2.3 ± 0.5 µM | Ki [6]: 10.7 ± 2.3 µM | fold increase of affinity compared to compound 32 [6]: 7 fold

CC(=O)Nc1nc2cc(C)ccc2s1 [Compound 34]
Ki [4, 9]: 8.4 ± 0.9 µM | Ki [5]: 1.1 ± 0.2 µM | Ki [6]: 11.6 ± 1.2 µM | fold increase of affinity compared to compound 32 [6]: 7 fold

CC(=O)Nc1nc2ccc(C)cc2s1 [Compound 35]
Ki [4, 9]: 17.8 ± 1.7 µM | Ki [5]: 2.9 ± 0.4 µM | Ki [6]: 48.6 ± 2.6 µM | fold increase of affinity compared to compound 32 [6]: two-fold increase of affinity

COc1cccc2sc(NC(C)=O)nc12 [Compound 36]
Ki [4, 9]: 7.8 ± 0.5 µM | Ki [5]: 1 ± 0.2 µM | Ki [6]: 1.8 ± 0.05 µM | experimental increase of affinity compared to compound 32, as free energy ([6]; corresponding to the 44-fold increase): 2.3 kcal/mol | fold increase of affinity compared to compound 32 [6]: 44 fold
